Measured values published in US11286248B2, “Pyrazine-2(1H)-ketone compound acting as FGFR inhibitor” (ZHANGZHOU PIEN TZE HUANG PHARMACEUTICAL CO., LTD., priority 2018, dated 2022).
Structures can show the parent of a compound that is named as a salt. Where two headings read alike, the source gives them in different places.

How the values were obtained:
FGFR2 = target: T1, FGFR2 (Homo sapiens, UniProt P21802); experiment: 33P isotope-labeled kinase activity test (Reaction Biology Corp), wild-type FGFR2; type: biochemical; conditions: for Selectivity FGFR1/2: ratio of IC50 FGFR1 to IC50 FGFR2; for IC50: wild-type kinase, 33P-ATP 5 μM, substrate pEY + Mn, 120 minutes at room temperature
T1 construct: purchased Invitrogen PV3368
T1 sequence (P21802 22-821): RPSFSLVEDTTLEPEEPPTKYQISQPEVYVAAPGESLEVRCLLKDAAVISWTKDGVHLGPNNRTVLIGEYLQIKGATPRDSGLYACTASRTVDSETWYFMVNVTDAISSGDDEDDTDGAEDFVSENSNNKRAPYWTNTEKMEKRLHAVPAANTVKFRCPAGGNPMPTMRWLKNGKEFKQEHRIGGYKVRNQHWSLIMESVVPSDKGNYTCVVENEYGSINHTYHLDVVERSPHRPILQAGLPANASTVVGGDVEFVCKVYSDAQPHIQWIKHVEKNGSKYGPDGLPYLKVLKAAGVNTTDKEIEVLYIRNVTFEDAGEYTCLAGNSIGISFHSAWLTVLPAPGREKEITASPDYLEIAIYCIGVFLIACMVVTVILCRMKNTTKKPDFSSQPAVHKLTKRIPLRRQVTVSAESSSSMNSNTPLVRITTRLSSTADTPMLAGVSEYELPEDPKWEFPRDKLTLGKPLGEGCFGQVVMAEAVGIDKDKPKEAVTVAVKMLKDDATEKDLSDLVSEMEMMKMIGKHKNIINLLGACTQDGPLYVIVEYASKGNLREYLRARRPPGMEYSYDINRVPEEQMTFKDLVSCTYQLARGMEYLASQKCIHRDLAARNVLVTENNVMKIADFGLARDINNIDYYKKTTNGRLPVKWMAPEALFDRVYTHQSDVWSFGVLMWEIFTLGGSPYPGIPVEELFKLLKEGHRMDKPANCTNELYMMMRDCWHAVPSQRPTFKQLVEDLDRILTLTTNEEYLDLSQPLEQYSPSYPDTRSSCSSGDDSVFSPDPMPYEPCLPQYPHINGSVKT

human FGFR1 = target: T2, human FGFR1 (Homo sapiens, UniProt P11362); experiment: 33P isotope-labeled kinase activity test (Reaction Biology Corp), wild-type FGFR1; type: biochemical; conditions: 33P-ATP 5 μM, substrate pEY + Mn, 120 minutes at room temperature
T2 construct: purchased Invitrogen PV3146
T2 sequence (P11362 22-822): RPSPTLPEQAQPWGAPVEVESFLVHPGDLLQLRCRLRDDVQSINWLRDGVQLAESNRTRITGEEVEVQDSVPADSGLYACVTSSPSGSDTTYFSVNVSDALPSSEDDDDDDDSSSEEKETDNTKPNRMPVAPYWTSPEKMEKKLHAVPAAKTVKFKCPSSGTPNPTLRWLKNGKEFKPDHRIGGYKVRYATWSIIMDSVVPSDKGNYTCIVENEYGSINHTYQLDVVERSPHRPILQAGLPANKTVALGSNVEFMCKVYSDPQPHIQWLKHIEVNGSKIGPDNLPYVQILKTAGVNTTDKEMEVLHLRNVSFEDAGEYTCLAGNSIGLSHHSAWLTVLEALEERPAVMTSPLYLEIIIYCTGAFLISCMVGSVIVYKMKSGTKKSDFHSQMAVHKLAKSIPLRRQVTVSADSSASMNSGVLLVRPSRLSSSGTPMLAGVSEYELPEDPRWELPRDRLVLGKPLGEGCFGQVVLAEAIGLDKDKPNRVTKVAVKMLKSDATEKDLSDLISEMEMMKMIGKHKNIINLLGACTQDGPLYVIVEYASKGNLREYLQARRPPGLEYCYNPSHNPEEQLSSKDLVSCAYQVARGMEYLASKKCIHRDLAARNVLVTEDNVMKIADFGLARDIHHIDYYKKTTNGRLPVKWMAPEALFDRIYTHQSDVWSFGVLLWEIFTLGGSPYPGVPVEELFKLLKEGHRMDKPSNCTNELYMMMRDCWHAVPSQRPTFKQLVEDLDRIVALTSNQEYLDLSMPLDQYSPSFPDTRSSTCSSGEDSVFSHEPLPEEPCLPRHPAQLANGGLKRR
Description: (§1) The IC50 value is determined using ^33P isotope-labeled kinase activity test (Reaction Biology Corp) to evaluate the inhibitory ability of the compounds to be tested on human FGFR1 and FGFR4.
(§2) Buffer conditions: 20 mM 4-(2-hydroxyethyl)-1-piperazineethanesulfonic acid (Hepes) (pH 7.5), 10 mM MgCl2, 1 mM ethylene glycol-bis-(2-aminoethyl ether)tetraacetic acid (EGTA), 0.02% polyoxyethylene lauryl ether (Brij35), 0.02 mg/ml bovine serum albumin (BSA), 0.1 mM sodium vanadate (Na3VO4), 2 mM dithiothreitol (DTT), and 1% DMSO.
Test steps: At room temperature, the compounds to be tested are dissolved in DMSO to prepare a 10 mM solution for use. The substrate is dissolved in the newly prepared buffer, and the kinase to be tested is added and mixed well. The DMSO solution in which the compounds to be tested are dissolved is added to the above-mentioned homogeneous reaction solution using acoustic technology (Echo 550). […] After incubating for 15 minutes, ^33P-ATP (activity: 0.01 μCi/μl, with corresponding concentration being listed in table 1) is added to start the reaction. The supplier article number, batch number, and the concentration information in the reaction solution of FGFR1, FGFR4 and substrates thereof are listed in table 1. […] The kinase activity data is expressed by comparing the kinase activity of the groups containing the compounds to be tested with that of the blank group (containing only DMSO). The IC50 value is obtained by curve fitting using Prism4 software (GraphPad), and the experimental results are shown in table 2.

human FGFR4 = target: T3, human FGFR4 (Homo sapiens, UniProt P22455); experiment: 33P isotope-labeled kinase activity test (Reaction Biology Corp), wild-type FGFR4; type: biochemical; conditions: 33P-ATP 2.5 μM, substrate pEY + Mn, 120 minutes at room temperature
T3 construct: purchased Invitrogen P3054
T3 sequence (P22455 22-802): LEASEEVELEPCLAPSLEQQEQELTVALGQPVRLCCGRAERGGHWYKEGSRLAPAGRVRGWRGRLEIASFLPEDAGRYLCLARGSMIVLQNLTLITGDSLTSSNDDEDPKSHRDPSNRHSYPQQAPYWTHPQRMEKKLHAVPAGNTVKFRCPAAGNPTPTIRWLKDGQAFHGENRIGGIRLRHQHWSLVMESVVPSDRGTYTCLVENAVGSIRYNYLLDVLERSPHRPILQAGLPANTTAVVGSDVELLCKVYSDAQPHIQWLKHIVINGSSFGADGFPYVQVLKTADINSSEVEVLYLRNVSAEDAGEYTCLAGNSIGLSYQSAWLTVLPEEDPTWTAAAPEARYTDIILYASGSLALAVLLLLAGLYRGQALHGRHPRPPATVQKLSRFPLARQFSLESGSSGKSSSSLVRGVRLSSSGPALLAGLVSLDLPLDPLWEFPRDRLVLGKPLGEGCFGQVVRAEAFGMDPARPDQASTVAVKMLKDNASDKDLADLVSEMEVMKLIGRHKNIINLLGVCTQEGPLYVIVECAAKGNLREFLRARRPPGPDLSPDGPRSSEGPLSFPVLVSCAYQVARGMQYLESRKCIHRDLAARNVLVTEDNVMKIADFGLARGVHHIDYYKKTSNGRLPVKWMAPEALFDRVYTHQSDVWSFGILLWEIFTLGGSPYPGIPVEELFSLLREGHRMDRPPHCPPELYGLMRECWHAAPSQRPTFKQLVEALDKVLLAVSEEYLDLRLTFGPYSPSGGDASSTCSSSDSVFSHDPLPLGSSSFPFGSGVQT
Description: as §1, §2
Test steps: At room temperature, the compounds to be tested are dissolved in DMSO to prepare a 10 mM solution for use. The substrate is dissolved in the newly prepared buffer, and the kinase to be tested is added and mixed well. The DMSO solution in which the compounds to be tested are dissolved is added to the above-mentioned homogeneous reaction solution using acoustic technology (Echo 550). […] After incubating for 15 minutes, ^33P-ATP (activity: 0.01 μCi/μl, with corresponding concentration being listed in table 1) is added to start the reaction. The supplier article number, batch number, and the concentration information in the reaction solution of FGFR1, FGFR4 and substrates thereof are listed in table 1. After the reaction is carried out at room temperature for 120 minutes, the reaction solution is spotted on P81 ion exchange filter paper (Whatman #3698-915). After the filter paper is repeatedly washed with 0.75% phosphoric acid solution, the radioactivity of the phosphorylated substrate remaining on the filter paper is measured. The kinase activity data is expressed by comparing the kinase activity of the groups containing the compounds to be tested with that of the blank group (containing only DMSO). The IC50 value is obtained by curve fitting using Prism4 software (GraphPad), and the experimental results are shown in table 2.

FGFR3 = target: T4, FGFR3 (Homo sapiens, UniProt P22607); experiment: 33P isotope-labeled kinase activity test (Reaction Biology Corp), wild-type FGFR3; type: biochemical; conditions: for Selectivity FGFR1/3: ratio of IC50 FGFR1 to IC50 FGFR3; for IC50: wild-type kinase, 33P-ATP 30 μM, substrate pEY + Mn, 120 minutes at room temperature
T4 construct: purchased Invitrogen PV3145
T4 sequence (P22607 23-806): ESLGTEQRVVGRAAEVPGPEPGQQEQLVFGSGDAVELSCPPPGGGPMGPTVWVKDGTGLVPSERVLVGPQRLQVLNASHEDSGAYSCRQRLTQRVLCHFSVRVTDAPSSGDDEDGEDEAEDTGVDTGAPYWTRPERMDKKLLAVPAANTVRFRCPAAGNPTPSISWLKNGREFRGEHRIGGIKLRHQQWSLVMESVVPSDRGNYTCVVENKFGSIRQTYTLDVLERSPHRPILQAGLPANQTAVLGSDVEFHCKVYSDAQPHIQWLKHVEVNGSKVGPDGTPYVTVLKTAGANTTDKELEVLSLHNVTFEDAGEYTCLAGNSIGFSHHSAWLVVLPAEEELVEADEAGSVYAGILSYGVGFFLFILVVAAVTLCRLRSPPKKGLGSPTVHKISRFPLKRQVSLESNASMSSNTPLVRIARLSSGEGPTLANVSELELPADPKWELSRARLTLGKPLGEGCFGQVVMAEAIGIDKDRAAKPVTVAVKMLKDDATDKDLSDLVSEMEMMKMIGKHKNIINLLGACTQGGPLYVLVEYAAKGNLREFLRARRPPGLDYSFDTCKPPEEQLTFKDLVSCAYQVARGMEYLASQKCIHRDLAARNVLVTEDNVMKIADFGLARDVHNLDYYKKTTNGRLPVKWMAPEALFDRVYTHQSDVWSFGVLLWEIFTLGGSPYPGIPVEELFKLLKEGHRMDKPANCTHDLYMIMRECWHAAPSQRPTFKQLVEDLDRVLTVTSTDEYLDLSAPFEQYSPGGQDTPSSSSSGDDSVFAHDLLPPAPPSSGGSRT

[1] = Pharmacokinetic evaluation of compounds in mice; type: in vivo; conditions: CD-1 mouse (male), single gavage, plasma; for MRT last: read-out: MRT0-last
Description: Experimental purpose: testing pharmacokinetics of the compounds in mice
CD-1 mouse (male), vehicle (an aqueous solution of 0.5% (w/v) methylcellulose and 0.5% (v/v) Tween 80), and trfluoroacetate salt of compound 0027.
The animals in groups 1 and 2 are administrated […] of the compounds by single gavage, respectively, and the administration volume is 10 mL/kg.
Whole blood samples (30 μl) are collected at the prescribed time points (0.25, 0.5, 1, 2, 4, 6, 8, 24 h) by saphenous vein blood collection, and the actual blood collection time is recorded in the test record. The acceptable error of the collection time point is a time point within 1 hour of administration time ±1 minute, and the acceptable error of other time points is a theoretical time ±5%.
All blood samples are immediately transferred to labeled commercial centrifuge tubes containing K2-EDTA. After being collected, the blood samples are centrifuged at 3200 rpm/min for 10 minutes at 4° C. to aspirate the supernatant plasma, which is quickly placed in dry ice, and kept at −20° C. or a lower temperature for LC-MS/MS analysis.

Row | Structure (SMILES) | Selectivity FGFR1/2 (FGFR2) | IC50 (FGFR2) [nM] | IC50 (human FGFR1) [nM] | IC50 (human FGFR4) [nM] | Selectivity FGFR1/3 (FGFR3) | IC50 (FGFR3) [nM] | Tlast ([1]; 300 mpk) [h] | AUC(0-inf) ([1]; po, 50 mg/kg, 50 mpk) [µM·h] | AUC(0-t) ([1]; po, 50 mg/kg, 50 mpk) [µM·h] | Cmax ([1]; po, 50 mg/kg, 50 mpk) [µM] | Tmax ([1]; po, 50 mg/kg, 50 mpk) [h] | half-life ([1]; po, 50 mg/kg, 50 mpk) [min] | MRT inf ([1]; po, 50 mg/kg, 50 mpk, read-out: MRT0-inf) [h] | MRT last ([1]; po, 50 mg/kg, 50 mpk) [h] | AUC(0-t) ([1]; po, 300 mg/kg, 300 mpk) [µM·h] | Cmax ([1]; po, 300 mg/kg, 300 mpk) [µM] | Tmax ([1]; po, 300 mg/kg, 300 mpk) [h] | MRT last ([1]; po, 300 mg/kg, 300 mpk) [h]
1 | COc1cc(OC)cc(-c2nc(-c3nc(-c4ccc(C5CCN(C)CC5)nc4)cnc3N)cn(C)c2=O)c1 [Hydrochloride salt of 0036] | 5.31 | 2.48 | 13.2 | > 10000 | 7.28 | 1.81 | – | – | – | – | – | – | – | – | – | – | – | –
2 | COc1cc(OC)cc(-c2nc(-c3nc(-c4cn(C5CCN(C)CC5)nc4C)cnc3N)cn(C)c2=O)c1 [Trifluoroacetate salt of 0016] | 6.94 | 4.21 | 29.2 | 8640 | 5.92 | 4.93 | – | – | – | – | – | – | – | – | – | – | – | –
3 | COc1cc(OC)c(Cl)c(-c2nc(-c3nc(-c4cn(C)nc4C)cnc3N)cn(C)c2=O)c1 [Trifluoroacetate salt of 0027] | 4.02 | 0.53 | 2.12 | 106 | 3.06 | 0.69 | 24.0 | 95.8 | 85.8 | 14.8 | 1 | 148 | 5.39 | 4.33 | 699 | 42.1 | 7 | 11.1
4 | COc1cc(OC)cc(-c2nc(-c3nc(-c4cn(CC5(C#N)CC5)nc4C)cnc3N)cn(C)c2=O)c1 [compound 0043] | 4.17 | 12.7 | 53 | – | 6.63 | 7.99 | – | – | – | – | – | – | – | – | – | – | – | –
5 | COc1cc(OC)cc(-c2nc(-c3nc(-c4cn(CCO)nc4C)cnc3N)cn(C)c2=O)c1 [compound 0048] | 4.79 | 56.1 | 269 | – | 4.65 | 57.8 | – | – | – | – | – | – | – | – | – | – | – | –
6 | COc1cc(OC)cc(-c2nc(-c3nc(-c4cnn(CCO)c4C)cnc3N)cn(C)c2=O)c1 [compound 0049] | 3.07 | 65.5 | 201 | – | 5.85 | 34.3 | – | – | – | – | – | – | – | – | – | – | – | –

Next, values leading:

Row | Selectivity FGFR1/2 (FGFR2) | IC50 (FGFR2) [nM] | IC50 (human FGFR1) [nM] | IC50 (human FGFR4) [nM] | Selectivity FGFR1/3 (FGFR3) | IC50 (FGFR3) [nM] | Tlast ([1]; 300 mpk) [h] | AUC(0-inf) ([1]; po, 50 mg/kg, 50 mpk) [µM·h] | AUC(0-t) ([1]; po, 50 mg/kg, 50 mpk) [µM·h] | Cmax ([1]; po, 50 mg/kg, 50 mpk) [µM] | Tmax ([1]; po, 50 mg/kg, 50 mpk) [h] | half-life ([1]; po, 50 mg/kg, 50 mpk) [min] | MRT inf ([1]; po, 50 mg/kg, 50 mpk, read-out: MRT0-inf) [h] | MRT last ([1]; po, 50 mg/kg, 50 mpk) [h] | AUC(0-t) ([1]; po, 300 mg/kg, 300 mpk) [µM·h] | Cmax ([1]; po, 300 mg/kg, 300 mpk) [µM] | Tmax ([1]; po, 300 mg/kg, 300 mpk) [h] | MRT last ([1]; po, 300 mg/kg, 300 mpk) [h] | Structure (SMILES)
7 | 4.48 | 6.54 | 29.3 | – | 7.12 | 4.11 | – | – | – | – | – | – | – | – | – | – | – | – | COc1cc(OC)cc(-c2nc(-c3nc(-c4cnn(CC5(C#N)CC5)c4C)cnc3N)cn(C)c2=O)c1 [compound 0051]
8 | 10.62 | 11.9 | 126 | – | 11.76 | 10.8 | – | – | – | – | – | – | – | – | – | – | – | – | COc1cc(OC)cc(-c2nc(-c3nc(-c4cncc(C)c4)cnc3N)cn(C)c2=O)c1 [compound 0056]
9 | – | 3060 | > 10000 | – | – | 49.4 | – | – | – | – | – | – | – | – | – | – | – | – | COc1cc(OC)cc(-c2nc(-c3nc(-c4ccc(C5(C#N)CCC5)nc4)cnc3N)cn(C)c2=O)c1 [compound 0059]
